For one data set, the target named is IRAK4 (Homo sapiens (Human), UniProt Q9NWZ3). Description: IRAK4 2-hour 1 mM ATP Biochemical Assay (MesoScale Detection format). The following applies: 100 pM IRAK4, read-out: IRAK4 IC50.
The nature of data set [1]: Kinetic solubility assay (CLND), potassium phosphate buffer pH 6.8. The data set is classed as physicochemical. To be noted: potassium phosphate buffer, pH 6.8, aqueous buffer, kinetic from dmso stock, pH 6.8, 2% DMSO, 24 hours at ambient temperature.
Excerpt: • Inject filtrates into the nitrogen detector for quantification on Analiza's Automated Discovery Workstation (ADW). • Solubility results generated in μg/mL
For the next data set, the target named is MDR1 (Homo sapiens (Human), UniProt P08183). Description: MDR1-MDCK assay (apparent permeability, efflux ratio). The following applies: human, MDCK-MDR1, 1 μM, read-out: MDR1-MDCK_Efflux Ratio. The data set is classed as in vitro ADME.
Sequence of MDR1 (P08183 whole entry): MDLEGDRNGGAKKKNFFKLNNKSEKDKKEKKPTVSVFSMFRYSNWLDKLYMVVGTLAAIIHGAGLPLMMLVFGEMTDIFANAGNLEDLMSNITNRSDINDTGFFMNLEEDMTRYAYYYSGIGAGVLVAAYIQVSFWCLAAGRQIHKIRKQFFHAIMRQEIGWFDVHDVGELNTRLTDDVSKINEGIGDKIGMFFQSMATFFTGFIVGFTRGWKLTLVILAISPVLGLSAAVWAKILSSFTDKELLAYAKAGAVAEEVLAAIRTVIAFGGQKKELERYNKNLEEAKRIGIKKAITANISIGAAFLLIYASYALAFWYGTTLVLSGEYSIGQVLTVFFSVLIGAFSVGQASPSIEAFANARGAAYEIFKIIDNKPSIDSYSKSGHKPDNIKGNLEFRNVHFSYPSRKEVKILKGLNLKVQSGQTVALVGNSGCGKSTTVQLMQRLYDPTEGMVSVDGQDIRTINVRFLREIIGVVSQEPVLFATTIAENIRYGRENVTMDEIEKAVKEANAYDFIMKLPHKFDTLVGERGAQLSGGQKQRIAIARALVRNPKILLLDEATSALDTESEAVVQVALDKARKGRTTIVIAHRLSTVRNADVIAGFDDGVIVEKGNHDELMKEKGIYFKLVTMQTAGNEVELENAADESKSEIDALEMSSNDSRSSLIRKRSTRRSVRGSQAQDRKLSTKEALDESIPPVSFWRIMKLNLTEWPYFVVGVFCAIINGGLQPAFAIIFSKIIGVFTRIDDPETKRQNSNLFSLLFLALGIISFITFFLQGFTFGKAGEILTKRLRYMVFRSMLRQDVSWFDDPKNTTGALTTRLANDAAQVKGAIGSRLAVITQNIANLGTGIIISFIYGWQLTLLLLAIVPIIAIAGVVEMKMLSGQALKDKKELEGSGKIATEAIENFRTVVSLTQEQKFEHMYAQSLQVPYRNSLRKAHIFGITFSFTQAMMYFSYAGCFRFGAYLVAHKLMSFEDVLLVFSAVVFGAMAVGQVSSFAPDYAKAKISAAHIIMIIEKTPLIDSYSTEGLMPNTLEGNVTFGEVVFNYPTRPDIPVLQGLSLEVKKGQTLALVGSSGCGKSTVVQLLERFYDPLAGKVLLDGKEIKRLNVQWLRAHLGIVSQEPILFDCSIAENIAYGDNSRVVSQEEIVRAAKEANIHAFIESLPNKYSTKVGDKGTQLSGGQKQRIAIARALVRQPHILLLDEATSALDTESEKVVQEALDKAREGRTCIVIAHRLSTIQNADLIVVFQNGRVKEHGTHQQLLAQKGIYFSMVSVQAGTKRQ

In brackets after ≈: the same amount, converted by molar mass.

Sequence of IRAK4 (Q9NWZ3 whole entry): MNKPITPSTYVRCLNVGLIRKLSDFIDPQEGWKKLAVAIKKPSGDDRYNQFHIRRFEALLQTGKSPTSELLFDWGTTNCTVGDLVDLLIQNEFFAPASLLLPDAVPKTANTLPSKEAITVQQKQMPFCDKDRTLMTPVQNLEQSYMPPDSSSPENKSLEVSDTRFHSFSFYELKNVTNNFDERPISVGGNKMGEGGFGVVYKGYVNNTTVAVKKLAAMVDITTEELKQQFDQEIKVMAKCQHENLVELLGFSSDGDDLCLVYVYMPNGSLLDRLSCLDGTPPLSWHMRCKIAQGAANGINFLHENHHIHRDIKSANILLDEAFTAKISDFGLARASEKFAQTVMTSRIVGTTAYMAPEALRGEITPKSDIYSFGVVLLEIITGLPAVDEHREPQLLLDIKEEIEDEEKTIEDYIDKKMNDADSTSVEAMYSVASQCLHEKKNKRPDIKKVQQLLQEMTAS
Description for IRAK4: The 2-hour 1 mM ATP Biochemical Assay employed a MesoScale Detection (MSD) format.
The activity was quenched with 11 μl of 70 mM EDTA, pH 8.
To detect the phosphorylated biotinylated peptide substrate, 30 μl of the quenched reaction mixture was added to equivalent wells of a 384 well streptavidin coated MesoScale plate (Meso Scale Discovery #L21SA-1). After a 1 hour incubation of the plate for 1 hour at room temperature with gentle mixing, the plate wells were washed 3 times with 50 mM Tris, pH 7.5, 150 mM NaCl, 0.02% Tween-20.
A 25 μl volume of 1:500 anti-P-Threonine Rabbit polyclonal Antibody plus 1:500 Goat-anti-Rabbit Sulfo Tag Antibody (Meso Scale Discovery R^32AB-1) in 50 mM Tris, pH 7.5, 150 mM NaCl, 0.02% Tween-20 plus 2% BSA was then added to each well. After a 1-hour incubation of the plate for 1 hour at room temperature with gentle mixing, the plate wells were washed, 3 times with 50 mM Tris, pH 7.5, 150 mM NaCl, 0.02% Tween-20.

`CC(C)Oc1cc2nn(C34COC(C)(C3)C4)cc2cc1C(=O)Nc1ccnn(C2CC2)c1=O` [Example 45, N-(2-cyclopropyl-3-oxo-2,3-dihydropyridazin-4-yl)-6-isopropoxy-2-(1-methyl-2-oxabicyclo[2.1.1]hexan-4-yl)-2H-indazole-5-carboxamide]: the IC50 (in general, the concentration needed to halve the response being measured) on IRAK4 amounted to 1.3 nM. For the same compound, the solubility (in general, how much of the substance goes into solution per volume) at 24 h in data set [1] was 1.2 µg/mL (≈ 2.67 µM). The efflux ratio at 120 min, 1 μM at MDR1 amounted to 0.73.
`CC(C)Oc1nc2nn(C34COC(C)(C3)C4)cc2cc1C(=O)Nc1ccnn(C2CC2)c1=O` [Example 46, N-(2-cyclopropyl-3-oxo-2,3-dihydropyridazin-4-yl)-6-isopropoxy-2-(1-methyl-2-oxabicyclo[2.1.1]hexan-4-yl)-2H-pyrazolo[3,4-b]pyridine-5-carboxamide]: the IC50 at IRAK4 was 0.4 nM. In addition, the solubility at 24 h in data set [1] amounted to 0.2 µg/mL (≈ 0.444 µM). Further, the efflux ratio at 120 min, 1 μM on MDR1 amounted to 0.88.
Regarding `COCC12CC(n3cc4cc(C(=O)Nc5cccn([C@H]6C[C@H]6F)c5=O)c(OC(C)C)cc4n3)(CO1)C2` [Example 67, N-(1-((1S,2R)-2-fluorocyclopropyl)-2-oxo-1,2-dihydropyridin-3-yl)-6-isopropoxy-2-(1-(methoxymethyl)-2-oxabicyclo[2.1.1]hexan-4-yl)-2H-indazole-5-carboxamide], the concentration for half-maximal inhibition (IC50) on IRAK4 was determined as 0.4 nM. In data set [1], this compound yielded a solubility at 24 h of 34 µg/mL (≈ 68.5 µM). The efflux ratio at 120 min, 1 μM on MDR1 was determined as 5.31.
Consider `COCC12CC(n3cc4cc(C(=O)Nc5cccn([C@H]6C[C@H]6C)c5=O)c(OC(C)C)cc4n3)(CO1)C2` [Example 78, 6-isopropoxy-2-(1-(methoxymethyl)-2-oxabicyclo[2.1.1]hexan-4-yl)-N-(1-((1S,2R)-2-methylcyclopropyl)-2-oxo-1,2-dihydropyridin-3-yl)-2H-indazole-5-carboxamide], for which the IC50 at IRAK4 is 0.7 nM. In data set [1], the solubility at 24 h is 36.1 µg/mL (≈ 73.3 µM). At MDR1, the efflux ratio at 120 min, 1 μM was 2.05.
For `CC(C)Oc1cc2nn(C34COC(C3)C4)cc2cc1C(=O)Nc1cccn([C@H]2C[C@H]2C)c1=O` [Example 79, 2-(2-oxabicyclo[2.1.1]hexan-4-yl)-6-isopropoxy-N-(1-((1S,2R)-2-methylcyclopropyl)-2-oxo-1,2-dihydropyridin-3-yl)-2H-indazole-5-carboxamide] the same measures were 0.8 nM, 55.8 µg/mL (≈ 124 µM) and 2.56.
On to `CC(C)Oc1cc2nn(C34COC(CF)(C3)C4)cc2cc1C(=O)Nc1cccn([C@H]2C[C@H]2C)c1=O` [Example 82, 2-(1-(fluoromethyl)-2-oxabicyclo[2.1.1]hexan-4-yl)-6-isopropoxy-N-(1-((1S,2R)-2-methylcyclopropyl)-2-oxo-1,2-dihydropyridin-3-yl)-2H-indazole-5-carboxamide], for which the IC50 at IRAK4 is 0.7 nM. This compound also came in with a solubility at 24 h in data set [1] of 33.8 µg/mL (≈ 70.3 µM). Also, at MDR1, the efflux ratio at 120 min, 1 μM amounted to 2.17.
As to `C[C@@H]1C[C@@H]1n1cccc(NC(=O)c2cc3cn(C45COC(C)(C4)C5)nc3nc2OC2CC2)c1=O` [Example 89, 6-cyclopropoxy-2-(1-methyl-2-oxabicyclo[2.1.1]hexan-4-yl)-N-(1-((1S,2R)-2-methylcyclopropyl)-2-oxo-1,2-dihydropyridin-3-yl)-2H-pyrazolo[3,4-b]pyridine-5-carboxamide], at IRAK4, the IC50 came out at 0.9 nM. Besides, the solubility at 24 h in data set [1] came to 38.1 µg/mL (≈ 82.6 µM). Besides, on MDR1, the efflux ratio at 120 min, 1 μM came out at 2.28.
Consider `COCC12CC(n3cc4cc(C(=O)Nc5cccn([C@H]6C[C@H]6C)c5=O)c(OC5CC5)nc4n3)(CO1)C2` [Example 90], for which, at IRAK4, the IC50 came to 1.1 nM. This compound gave a solubility at 24 h in data set [1] of 65.2 µg/mL (≈ 133 µM). At MDR1, the efflux ratio at 120 min, 1 μM was determined as 5.39.
In the case of `C[C@@H]1C[C@@H]1n1cccc(NC(=O)c2cc3cn(C45COC(C4)C5)nc3nc2OC2CC2)c1=O` [Example 91, 2-(2-oxabicyclo[2.1.1]hexan-4-yl)-6-cyclopropoxy-N-(1-((1S,2R)-2-methylcycloproyl)-2-oxo-1,2-dihydropyridin-3-yl)-2H-pyrazolo[3,4-b]pyridine-5-carboxamide], the IC50 on IRAK4 was determined as 1.1 nM. In addition, the solubility at 24 h in data set [1] stood at 46.7 µg/mL (≈ 104 µM). For the same compound, the efflux ratio at 120 min, 1 μM at MDR1 is 5.09.
